Test results published in PubChem BioAssay AID248 (DTP/NCI, 2004).
Several values for one entry are separate records, joined by “and”; a condition that tells them apart may be missing. Identical values can stand only once. Inconclusive results and toxic doses are left out. Cut-off read from the data, not from the text of the source: active = T/C of 150% or more; inactive = T/C below 125%. Peptide text beside a SMILES is read from it. * marks the point of attachment. Trt = c1ccc(C(c2ccccc2)(c2ccccc2)*)cc1; OtBu = CC(C)(C)O*

Tested on: L1210 leukemia ip in BDF1 mice, survival T/C
Test: NCI In Vivo Anticancer Drug Screen. Data for tumor model L1210 Leukemia (intraperitoneal) in B6D2F1 (BDF1) mice
Conditions: endpoint: mean survival time, higher = longer survival
Procedure, shortened: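 Antitumor effect is assessed in tumor-bearing animals. Survival in the compound arm is compared with a vehicle-dosed control arm and expressed as their quotient.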

[1] = dose: 100.0 mg/kg/injection, schedule: Q01DX009 (ip), vehicle: Klucel (hydroxypropylcellulose) (HPC)
[2] = dose: 100.0 mg/kg/injection, schedule: Q04DX003 (ip), vehicle: Klucel (hydroxypropylcellulose) (HPC)
[3] = dose: 200.0 mg/kg/injection, schedule: Q01DX009 (ip), vehicle: Klucel (hydroxypropylcellulose) (HPC)
[4] = dose: 200.0 mg/kg/injection, schedule: Q04DX003 (ip), vehicle: Klucel (hydroxypropylcellulose) (HPC)
[5] = dose: 400.0 mg/kg/injection, schedule: Q04DX003 (ip), vehicle: Klucel (hydroxypropylcellulose) (HPC)
[6] = dose: 100.0 mg/kg/injection, schedule: Q01DX001 (ip), vehicle: carboxymethylcellulose (CMC)
[7] = dose: 200.0 mg/kg/injection, schedule: Q01DX001 (ip), vehicle: carboxymethylcellulose (CMC)
[8] = dose: 400.0 mg/kg/injection, schedule: Q01DX001 (ip), vehicle: carboxymethylcellulose (CMC)
[9] = dose: 100.0 mg/kg/injection, schedule: Q04DX003 (ip), vehicle: saline
[10] = dose: 200.0 mg/kg/injection, schedule: Q04DX003 (ip), vehicle: saline
[11] = dose: 100.0 mg/kg/injection, schedule: Q01DX001 (ip), vehicle: saline with Tween-80
[12] = dose: 200.0 mg/kg/injection, schedule: Q01DX001 (ip), vehicle: saline with Tween-80
[13] = dose: 400.0 mg/kg/injection, schedule: Q01DX001 (ip), vehicle: saline with Tween-80
[14] = dose: 100.0 mg/kg/injection, schedule: Q01DX001 (ip), vehicle: saline
[15] = dose: 200.0 mg/kg/injection, schedule: Q01DX001 (ip), vehicle: saline
[16] = dose: 400.0 mg/kg/injection, schedule: Q01DX001 (ip), vehicle: saline

Measured: T/C

COc1ccc(Br)c(CCC(C)C)c1OC
inactive: [1] 92 % of control | [2] 108 % of control | [3] 95 % of control | [4] 108 % of control | dose: 400.0 mg/kg/injection, schedule: Q01DX009 (ip), vehicle: Klucel (hydroxypropylcellulose) (HPC) 101 % of control | [5] 104 % of control

NC(N)=NC(N)=Nc1ccccc1CS
inactive: dose: 75.0 mg/kg/injection, schedule: Q01DX001 (ip), vehicle: saline 101 % of control | dose: 150.0 mg/kg/injection, schedule: Q01DX001 (ip), vehicle: saline 102 % of control

COc1cc2cc3c4cc(OC)c(OC)cc4cc[n+]3c(/C=C/c3cccc(O)c3)c2cc1OC
inactive: dose: 25.0 mg/kg/injection, schedule: Q04DX002 (ip), vehicle: carboxymethylcellulose (CMC) 97 % of control and 108 % of control | dose: 50.0 mg/kg/injection, schedule: Q04DX002 (ip), vehicle: carboxymethylcellulose (CMC) 101 % of control | [6] 102 % of control and 110 % of control | [7] 110 % of control and 119 % of control | [8] 98 % of control and 114 % of control | dose: 400.0 mg/kg/injection, schedule: Q04DX002 (ip), vehicle: carboxymethylcellulose (CMC) 105 % of control and 115 % of control

C[n+]1ccccc1/C=N/O
inactive: dose: 25.0 mg/kg/injection, schedule: Q01DX009 (ip), vehicle: saline 105 % of control | dose: 33.0 mg/kg/injection, schedule: Q01DX009 (ip), vehicle: saline 100 % of control | dose: 50.0 mg/kg/injection, schedule: Q01DX009 (ip), vehicle: saline 98 % of control | dose: 75.0 mg/kg/injection, schedule: Q01DX009 (ip), vehicle: Klucel (hydroxypropylcellulose) (HPC) 102 % of control | dose: 75.0 mg/kg/injection, schedule: Q01DX009 (ip), vehicle: saline 98 % of control | dose: 75.0 mg/kg/injection, schedule: Q04DX003 (ip), vehicle: saline 91 % of control | dose: 100.0 mg/kg/injection, schedule: Q01DX009 (ip), vehicle: saline 100 % of control and 103 % of control | [9] 103 % of control | dose: 150.0 mg/kg/injection, schedule: Q01DX009 (ip), vehicle: Klucel (hydroxypropylcellulose) (HPC) 108 % of control | dose: 150.0 mg/kg/injection, schedule: Q04DX003 (ip), vehicle: saline 109 % of control | dose: 200.0 mg/kg/injection, schedule: Q01DX009 (ip), vehicle: saline 97 % of control | [10] 94 % of control | dose: 300.0 mg/kg/injection, schedule: Q04DX003 (ip), vehicle: saline 98 % of control

O=C1c2ccccc2C(=O)N1c1ccc(CBr)cc1
inactive: dose: 100.0 mg/kg/injection, schedule: Q01DX001 (ip), vehicle: Klucel (hydroxypropylcellulose) (HPC) 98 % of control | [1] 92 % of control and 94 % of control | dose: 100.0 mg/kg/injection, schedule: Q04DX002 (ip), vehicle: Klucel (hydroxypropylcellulose) (HPC) 106 % of control and 89 % of control | [2] 98 % of control | dose: 200.0 mg/kg/injection, schedule: Q01DX001 (ip), vehicle: Klucel (hydroxypropylcellulose) (HPC) 94 % of control | [3] 89 % of control | dose: 200.0 mg/kg/injection, schedule: Q04DX002 (ip), vehicle: Klucel (hydroxypropylcellulose) (HPC) 97 % of control and 102 % of control | [4] 90 % of control | dose: 400.0 mg/kg/injection, schedule: Q01DX001 (ip), vehicle: Klucel (hydroxypropylcellulose) (HPC) 89 % of control | dose: 400.0 mg/kg/injection, schedule: Q04DX002 (ip), vehicle: Klucel (hydroxypropylcellulose) (HPC) 92 % of control and 115 % of control | [5] 102 % of control

Cc1ccc(-n2c(O)c(C=N)c(=O)[nH]c2=O)cc1
inactive: dose: 100.0 mg/kg/injection, schedule: Q01DX009 (ip), vehicle: saline with Tween-80 97 % of control | dose: 200.0 mg/kg/injection, schedule: Q01DX009 (ip), vehicle: saline with Tween-80 93 % of control

CCOC(=O)CCSc1ccc(NC(C)=O)cc1
inactive: [11] 103 % of control | [12] 111 % of control | [13] 97 % of control

[N-]=[N+]=Nc1ccc(S(N)(=O)=O)cc1
inactive: [14] 99 % of control | [15] 94 % of control | [16] 93 % of control

NC(CSS(=O)(=O)O)=NCC1CC2CCC1C2 (stereo unspecified)
inactive: dose: 6.25 mg/kg/injection, schedule: Q04DX002 (ip), vehicle: saline with Tween-80 100 % of control | dose: 12.5 mg/kg/injection, schedule: Q04DX002 (ip), vehicle: saline with Tween-80 110 % of control | dose: 25.0 mg/kg/injection, schedule: Q04DX002 (ip), vehicle: saline with Tween-80 106 % of control

CCCCSP(=S)(OCC)OCC
inactive: dose: 100.0 mg/kg/injection, schedule: Q04DX003 (ip), vehicle: saline with Tween-80 101 % of control | dose: 200.0 mg/kg/injection, schedule: Q04DX003 (ip), vehicle: saline with Tween-80 88 % of control

CC(C)(CCC(=O)O)[N+](=O)[O-]
inactive: dose: 50.0 mg/kg/injection, schedule: Q04DX003 (ip), vehicle: saline 106 % of control | [9] 105 % of control | [10] 101 % of control

C(=NCCCN1CCN(CCCN=Cc2ccc3c(c2)OCO3)CC1)c1ccc2c(c1)OCO2
inactive: dose: 25.0 mg/kg/injection, schedule: Q01DX Z (ip), vehicle: carboxymethylcellulose (CMC) 103 % of control | dose: 50.0 mg/kg/injection, schedule: Q01DX Z (ip), vehicle: carboxymethylcellulose (CMC) 109 % of control | dose: 100.0 mg/kg/injection, schedule: Q01DX Z (ip), vehicle: carboxymethylcellulose (CMC) 100 % of control | dose: 200.0 mg/kg/injection, schedule: Q01DX Z (ip), vehicle: carboxymethylcellulose (CMC) 97 % of control

CC(C)(C)OC(=O)CNC(=O)C(Cc1ccccc1)NC(=O)C(N)CSC(c1ccccc1)(c1ccccc1)c1ccccc1 (stereo not drawn) (H-Cys(Trt)-Phe-Gly-OtBu; configuration not given here)
inactive: dose: 264.0 mg/kg/injection, schedule: Q01DX001 (ip), vehicle: carboxymethylcellulose (CMC) 104 % of control | dose: 264.0 mg/kg/injection, schedule: Q01DX001 (ip), vehicle: saline 110 % of control | [8] 107 % of control | [16] 115 % of control

CCC(=O)C(CCN(C)C)c1ccccn1 (stereo unspecified)
inactive: dose: 20.0 mg/kg/injection, schedule: Q01DX Z (ip), vehicle: saline 103 % of control | dose: 30.0 mg/kg/injection, schedule: Q01DX Z (ip), vehicle: saline 91 % of control | dose: 44.0 mg/kg/injection, schedule: Q01DX Z (ip), vehicle: saline 91 % of control | dose: 66.0 mg/kg/injection, schedule: Q01DX Z (ip), vehicle: saline 93 % of control

O=[N+]([O-])c1ccc2c(c1)-c1[nH]c3ccccc3c1CS2
inactive: dose: 100.0 mg/kg/injection, schedule: Q01DX001 (ip), vehicle: acetone 100 % of control | dose: 200.0 mg/kg/injection, schedule: Q01DX001 (ip), vehicle: acetone 92 % of control | dose: 400.0 mg/kg/injection, schedule: Q01DX001 (ip), vehicle: acetone 92 % of control

O=[N+]([O-])c1c[nH]c2ncnc(SCc3ccccc3)c12
inactive: [6] 87 % of control | [7] 93 % of control | [8] 91 % of control

c1ccc(SCC2C3CSC4C3CC2C4Sc2ccccc2)cc1 (stereo unspecified)
inactive: [11] 98 % of control | [12] 105 % of control | [13] 94 % of control

CCOC(=O)c1ccc(Nc2sc(C(=O)c3ccc(Br)cc3)c(N)c2C#N)cc1
inactive: dose: 100.0 mg/kg/injection, schedule: Q04DX002 (ip), vehicle: saline with Tween-80 102 % of control | dose: 200.0 mg/kg/injection, schedule: Q04DX002 (ip), vehicle: saline with Tween-80 94 % of control | dose: 400.0 mg/kg/injection, schedule: Q04DX002 (ip), vehicle: saline with Tween-80 88 % of control

CC(=O)OCC1OC(n2ccc(=O)[nH]c2=O)C(OC(C)=O)C1OC(C)=O (stereo unspecified)
inactive: [14] 100 % of control | [15] 103 % of control | [16] 106 % of control
